# Results taken from ChEMBL document CHEMBL1122107, “Structure-antitumor activity relationships of 9-anilinoacridines using pattern recognition” (1982).
# Several values for one entry are separate records, joined by “and”; a condition that tells them apart may be missing. Equal entries are not always repeated.
# Tested on: L1210
# Assay: Tumor cell selectivity determined as maximal percent increase in life span (ILSmax) at LD10 dosage level in L1210 cells
# Format: functional, Mus musculus
row,Structure (SMILES),ILSmax
1,CCCCS(=O)(=O)Nc1ccc(Nc2c3ccccc3nc3cc([N+](=O)[O-])ccc23)cc1,110%
2,NCCCCCCc1ccc(N=c2c3ccccc3[nH]c3ccccc23)cc1,25%
3,O=C(O)COc1ccc(Nc2c3ccccc3nc3ccccc23)cc1,25%
4,CCCNC(=O)c1ccc(Nc2c3ccccc3nc3ccccc23)cc1,25%
5,Cc1cc(NS(C)(=O)=O)ccc1Nc1c2ccccc2nc2cc([N+](=O)[O-])ccc12,70%
6,CC(C(N)=O)S(=O)(=O)Nc1ccc(Nc2c3ccccc3nc3ccccc23)cc1 (stereo not drawn),25%
7,Cc1cc(C(=O)O)ccc1Nc1c2ccccc2nc2ccccc12,25%
8,CCS(=O)(=O)Nc1ccc(Nc2c3ccccc3nc3cc(Cl)ccc23)c(OC)c1,95%
9,NCC(=O)NCCS(=O)(=O)Nc1ccc(Nc2c3ccccc3nc3cc([N+](=O)[O-])ccc23)cc1,170%
10,N=C(N)NCCCCS(=O)(=O)Nc1ccc(Nc2c3ccccc3nc3cc([N+](=O)[O-])ccc23)cc1,110%
11,O=C(O)CCc1ccc(NC(=O)Nc2ccc(N=c3c4ccccc4[nH]c4ccccc34)cc2)cc1,125%
12,CC(=O)Nc1ccc2c(Nc3ccc(NS(C)(=O)=O)cc3)c3ccc(Cl)cc3nc2c1,60%
13,O=C(O)CCCCc1ccc(Nc2c3ccccc3nc3ccccc23)cc1,187%
14,NCCC(=O)NCCS(=O)(=O)Nc1ccc(Nc2c3ccccc3nc3ccccc23)cc1,25%
15,COc1cc(NS(C)(=O)=O)ccc1N=c1c2ccccc2[nH]c2ccc(C(N)=O)cc12,25%
16,CCS(=O)(=O)Nc1ccc(Nc2c3ccccc3nc3c(C(N)=O)cccc23)c(OC)c1,166%
17,O=C(O)CCCCCCCCCc1ccc(Nc2c3ccccc3nc3ccccc23)cc1,75%
18,COc1cc(NS(C)(=O)=O)ccc1Nc1c2cccc(C)c2nc2c(C)c(N)ccc12,80%
19,O=C(Nc1ccc(N=c2c3ccccc3[nH]c3ccccc23)cc1)Nc1ccc(C(=O)O)cc1,85%
20,CC(=O)N(c1ccc(Nc2c3ccc([N+](=O)[O-])cc3nc3c(C)cccc23)cc1)S(C)(=O)=O,150%
21,COc1cc(NS(C)(=O)=O)ccc1Nc1c2ccc([N+](=O)[O-])cc2nc2c(C)cccc12,72% and 113%
22,CS(=O)(=O)Nc1ccc(N=c2c3ccccc3[nH]c3cc([N+](=O)[O-])ccc23)cn1,72%
23,Cc1cc(NS(C)(=O)=O)ccc1Nc1c2ccccc2nc2c(C(N)=O)cccc12,68%
24,CCCC(=O)N(c1ccc(Nc2c3ccccc3nc3cc(NC(C)=O)ccc23)cc1)S(C)(=O)=O,95%
25,Nc1ccc2c(Nc3ccc(NC(=O)c4ccccc4)cc3)c3ccccc3nc2c1,115%

row,Structure (SMILES),ILSmax
1,COc1cc(N)ccc1Nc1c2ccccc2nc2ccccc12,25% and 66%
2,O=C(Nc1ccc(Nc2c3ccccc3nc3ccccc23)cc1)OCC(O)CO (stereo not drawn),70%
3,CCCCNC(=O)c1cccc2c(Nc3ccc(NS(=O)(=O)CCC)cc3OC)c3ccccc3nc12,71%
4,CC(=O)Nc1ccc2c(Nc3ccc(NS(=O)(=O)CCCNC(=N)N)cc3)c3ccc([N+](=O)[O-])cc3nc2c1,160%
5,NC(=O)N/N=C/c1ccc(Nc2c3ccccc3nc3ccccc23)cc1,72%
6,O=S(=O)(Cc1ccc(Nc2c3ccccc3nc3ccccc23)cc1)Nc1ccccn1,98%
7,CS(=O)(=O)N1CCN(c2ccc(Nc3c4ccccc4nc4ccccc34)cc2)CC1,70%
8,COc1ccc2nc3cc(NC(C)=O)ccc3c(Nc3ccc(NS(C)(=O)=O)cc3)c2c1,25%
9,COc1cc(NS(C)(=O)=O)ccc1Nc1c2ccccc2nc2cc(C(C)C)ccc12,40%
10,Nc1ccc(S(=O)(=O)Nc2ccc(Nc3c4ccccc4nc4cc(Cl)ccc34)cc2)cc1,50%
11,O=C(O)CCCCCCCc1ccc(Nc2c3ccccc3nc3ccccc23)cc1,75%
12,CCCCCS(=O)(=O)Nc1ccc(Nc2c3ccccc3nc3c(C(=O)NCCCC)cccc23)c(OC)c1,45%
13,O=C(O)c1ccc(Nc2c3ccccc3nc3ccccc23)cc1,90%
14,CC(=O)Nc1ccc(S(=O)(=O)Nc2ccc(Nc3c4ccccc4nc4ccccc34)cc2)cc1,151%
15,CCCCCCS(=O)(=O)Nc1ccc(Nc2c3ccccc3nc3cc(S(C)(=O)=O)ccc23)c(OC)c1,25%
16,CNc1ccc2c(Nc3ccc(C(=O)O)cc3)c3ccccc3nc2c1,25%
17,CCc1ccc2c(Nc3ccc(CC(=O)O)cc3)c3ccccc3nc2c1,200%
18,NCCCS(=O)(=O)c1ccc(Nc2c3ccccc3nc3cc([N+](=O)[O-])ccc23)cc1,95%
19,Cc1cc(NS(C)(=O)=O)ccc1Nc1c2ccccc2nc2c(N)cccc12,120%
20,COc1cc(NS(C)(=O)=O)ccc1Nc1c2ccccc2nc2c(CCC(N)=O)cccc12,105%
21,CCOc1cccc2c(Nc3ccc(NS(C)(=O)=O)cc3)c3ccccc3nc12,85%
22,CS(=O)(=O)Nc1ccc(Nc2c3ccccc3nc3cc([N+](=O)[O-])ccc23)cc1,69%
23,CCCCCCC(=O)N(c1ccc(Nc2c3ccccc3nc3cc(NC(C)=O)ccc23)cc1)S(C)(=O)=O,100%
24,CN(C)Cc1ccc(Nc2c3ccccc3nc3ccccc23)cc1,25%
25,O=[N+]([O-])c1ccccc1Nc1c2ccccc2nc2ccccc12,25%

row,Structure (SMILES),ILSmax
1,CCCNc1ccc(Nc2c3ccccc3nc3ccccc23)cc1,25%
2,COc1cc(NS(C)(=O)=O)ccc1Nc1c2ccccc2nc2cc(I)ccc12,74%
3,CCOc1ccccc1Nc1c2ccccc2nc2ccccc12,25%
4,CS(=O)(=O)Nc1ccccc1Nc1c2ccccc2nc2ccccc12,25%
5,CCN(CC)c1ccc(Nc2c3ccccc3nc3ccccc23)cc1,25%
6,CCCCS(=O)(=O)Nc1ccc(Nc2c3ccccc3nc3c(OC)cccc23)c(OC)c1,63%
7,Cc1cccc2c(Nc3ccc(NS(C)(=O)=O)cc3)c3ccc(N)cc3nc12,110%
8,Cc1cccc2c(Nc3ccc(NS(C)(=O)=O)cc3)c3ccc([N+](=O)[O-])cc3nc12,120% and 130%
9,Cc1cc(N)ccc1N=c1c2ccccc2[nH]c2ccccc12,76%
10,COc1cc(NS(C)(=O)=O)ccc1Nc1c2ccccc2nc2cc(Br)c(N)cc12,99%
11,CCCCCCS(=O)(=O)Nc1ccc(Nc2c3ccccc3nc3cc(NC(C)=O)ccc23)cc1,42%
12,O=C(O)CCCCCc1ccc(NC(=O)Nc2ccc(Nc3c4ccccc4nc4ccccc34)cc2)cc1,60%
13,COc1ccc2c(Nc3ccc(NS(C)(=O)=O)cc3)c3ccc(N)cc3nc2c1,105%
14,COc1cc(NS(C)(=O)=O)ccc1N=c1c2ccccc2[nH]c2ccc(C(C)(C)C)cc12,25%
15,COc1ccc2c(Nc3ccc(NS(C)(=O)=O)cc3OC)c3ccc(Cl)cc3nc2c1,50%
16,COc1cc(NS(C)(=O)=O)ccc1Nc1c2ccccc2nc2c(OCCO)cccc12,105%
17,CCCCCS(=O)(=O)Nc1ccc(Nc2c3ccccc3nc3cc([N+](=O)[O-])ccc23)c(OC)c1,72%
18,Cc1c([N+](=O)[O-])ccc2c(Nc3ccc(NS(C)(=O)=O)cc3)c3ccccc3nc12,70%
19,Cc1cccc2c(Nc3ccc(NS(=O)(=O)CCCCN)cc3)c3cccc(C)c3nc12,72%
20,CC(=O)Nc1ccc2c(Nc3ccc(NS(C)(=O)=O)cc3)c3ccc([N+](=O)[O-])cc3nc2c1,141%
21,N=C(N)NCCS(=O)(=O)Nc1ccc(Nc2c3ccc(N)cc3nc3ccc(N)cc23)cc1,85%
22,CC(C)CC(=O)Nc1ccc(Nc2c3ccccc3nc3ccccc23)cc1,105%
23,CCCS(=O)(=O)Nc1ccc(Nc2c3ccccc3nc3cc(NC(C)=O)ccc23)cc1,115%
24,O=C(Cc1ccccc1)Nc1ccc(Nc2c3ccccc3nc3ccccc23)cc1,25%
25,Cc1cc(NS(C)(=O)=O)ccc1Nc1c2ccc([N+](=O)[O-])cc2nc2c(C)c(C)ccc12,60%

row,Structure (SMILES),ILSmax
1,CNc1ccc2c(Nc3ccc(NS(C)(=O)=O)cc3)c3cccc(C)c3nc2c1,170%
2,Nc1ccc(CCS(=O)(=O)Nc2ccc(Nc3c4ccccc4nc4ccccc34)cc2)cc1,25%
3,CS(=O)(=O)Nc1ccc(Nc2c3ccccc3nc3cc(NC(=O)c4ccccc4)ccc23)cc1,25%
4,CCCC(=O)N(c1ccc(Nc2c3ccccc3nc3c(C)cccc23)cc1)S(C)(=O)=O,75%
5,CNc1ccc2c(Nc3ccc(NS(C)(=O)=O)cc3)c3cccc(C)c3nc2c1C,70%
6,CS(=O)(=O)c1ccc(S(=O)(=O)Nc2ccc(Nc3c4ccccc4nc4ccccc34)cc2)cc1,128%
7,Cc1cccc2c(Nc3ccc(NS(C)(=O)=O)cc3)c3cc(N)c(Br)cc3nc12,120%
8,CCCCCC(=O)Nc1ccc(Nc2c3ccccc3nc3ccccc23)cc1,110%
9,COc1cc(NS(C)(=O)=O)ccc1Nc1c2ccc(C)cc2nc2cc([N+](=O)[O-])ccc12,92%
10,COc1ccc2c(Nc3ccc(NS(C)(=O)=O)cc3)c3ccc([N+](=O)[O-])cc3nc2c1,60%
11,CC(=O)Nc1ccccc1Nc1c2ccccc2nc2ccccc12,25%
12,CN(c1ccc(N=c2c3ccccc3[nH]c3cc(N)ccc23)cc1)S(C)(=O)=O,100%
13,Oc1cccc(Nc2c3ccccc3nc3ccccc23)c1,25%
14,Nc1ccc(S(=O)(=O)Nc2ccc(Nc3c4ccccc4nc4ccccc34)cc2)cc1,100%
15,NS(=O)(=O)c1ccccc1Nc1c2ccccc2nc2ccccc12,25%
16,CN(c1ccc(Nc2c3ccccc3nc3ccccc23)cc1)S(C)(=O)=O,65%
17,COc1ccc(Nc2c3ccccc3nc3ccccc23)cc1,25%
18,CCc1ccccc1Nc1c2ccccc2nc2ccccc12,25%
19,COc1cc(NS(C)(=O)=O)ccc1Nc1c2ccccc2nc2c(C(=O)NCCO)cccc12,100%
20,COc1ccc2c(Nc3ccc(NS(C)(=O)=O)cc3)c3ccccc3nc2c1,107%
21,CS(=O)(=O)Nc1ccc(Nc2c3ccccc3nc3ccc(N)cc23)cc1,50%
22,CC(=O)Nc1ccc2c(Nc3ccc(NS(C)(=O)=O)cc3)c3ccccc3nc2c1,60%
23,COc1cc(NS(C)(=O)=O)ccc1Nc1c2ccccc2nc2c(OC)cccc12,110%
